Test results as given in patent US20070270475A1, “4-Methoxy-Pyrrolidine-2-Carboxylic Acid Compounds and Derivatives Thereof as Hepatitis C Virus Inhibitors” (priority 2004, published 2007).

What was measured:
[1] = tested on: Huh-7 HCV replicon cells (sub-line 5-15; genotype 1b); assay: Replicon ELISA cell based assay, genotype 1b (sub-line 5-15); parameters: species or system HCV genotype 1b; conditions: Hepatitis C virus, Huh-7 genotype 1b replicon sub-line 5-15, 72 hours
Method: (§1) Replicon ELISA Cell Based Assay
(§2) 100 μL of medium containing 10% FCS were added to each well of clear, flat-bottomed 96 well microplates, excepting wells in the top row. Test compound was diluted in assay medium to twice the final required starting concentration from a 40 mM stock solution in DMSO. 200 μL of the starting dilution were introduced into two wells each in the top row and doubling dilutions made down the plate by the sequential transfer of 100 μL aliquots with thorough mixing in the wells; the final 100 μL were discarded. The two bottom rows were not used for compound dilutions. Huh-7 HCV replicon cell monolayers nearing confluency were stripped from growth flasks with versene-trypsin solution and the cells were resuspended in assay medium at either 2×10^5 cells/mL (sub-line 5-15; genotype 1b; Lohmann, V., Korner, F., Koch, J-O., Herian, U., Thielmann, L. and Bartenschlager, R., 1999, Science, 285, pp 110-113) or at 3×10^5 cells/mL (genotype 1a; Gu, B., Gates, A.T., Isken, O., Behrens, S. E. and Sarisky, R. T., J. Virol., 2003, 77, 5352-5359). 100 μL of cell suspension were added to all wells and the plates incubated at 37° C. for 72 hours in a 5% CO2 atmosphere.
(§3) Following incubation, the assay medium was aspirated from the plates. The cell sheets were washed by gentle immersion in phosphate buffered saline (PBS), which was then aspirated off, and fixed with acetone:methanol (1:1) for 5 minutes. Following a further wash with PBS, 100 μL of ELISA diluent (PBS+0.05% v/v Tween 20+2% w/v skimmed milk powder) were added to all wells and the plates incubated at 37° C. for 30 minutes on an orbital platform. The diluent was removed and each well then received 50 μL of a 1/200 dilution of anti-HCV specific, murine, monoclonal antibody (either Virostat #1872 or #1877), except for wells in one of the compound-free control rows which received diluent alone to act as negative controls. The plates were incubated at 37° C. for 2 hours and washed 3 times with PBS/0.05% Tween 20, then 50 μL of horseradish peroxidase conjugated, anti-mouse, rabbit polyclonal serum (Dako #P0260), diluted 1/1000, were added to all wells. The plates were incubated for a further hour, the antibody removed and the cell sheets washed 5 times with PBS/Tween and blotted dry. The assay was developed by the addition of 50 μL of ortho-phenylenediamine/peroxidase substrate in urea/citrate buffer (SigmaFast, Sigma #P-9187) to each well, and colour allowed to develop for up to 15 minutes. The reaction was stopped by the addition of 25 μL per well of 2 M sulphuric acid and the plates were read at 490 nm on a Fluostar Optima spectrophotometer.
(§4) The substrate solution was removed and the plates were washed in tap water, blotted dry and the cells stained with 5% carbol fuchsin in water for 30 minutes. The stain was discarded and the cell sheets washed, dried and examined microscopically to assess cytotoxicity.
(§5) The absorbance values from all compound-free wells that had received both primary and secondary antibodies were averaged to obtain a positive control value. The mean absorbance value from the compound-free wells that had not received the primary antibody was used to provide the negative (background) control value. The readings from the duplicate wells at each compound concentration were averaged and, after the subtraction of the mean background from all values, were expressed as a percentage of the positive control signal. The quantifiable and specific reduction of expressed protein detected by the ELISA in the presence of a drug can be used as a measure of replicon inhibition. GraFit software (Erithacus Software Ltd.) was used to plot the curve of percentage inhibition against compound concentration and derive the 50% inhibitory concentration (IC50) for the compound.

[2] = tested on: Huh-7 HCV replicon cells (genotype 1a); assay: Replicon ELISA cell based assay, genotype 1a; parameters: species or system HCV genotype 1a; conditions: Hepatitis C virus, Huh-7 genotype 1a replicon, 72 hours
Method: as §1, §2, §3, §4, §5

Row | Structure (SMILES) | IC50 [1] [nM] | IC50 [2] [µM]
1 | COCC1CC(CC(C)C)(C(=O)O)N(C(=O)c2ccc(C(C)(C)C)c(OC)c2)C1c1ncc(C)s1 (single isomer, unassigned; enantiomer a) [Compound D, reference compound] | 150 to 10000 | 10 to 100
2 | COC[C@H]1C[C@@](Cc2cscn2)(C(=O)O)N(C(=O)c2ccc(C(C)(C)C)c(OC)c2)[C@H]1c1nccs1 (racemic) [Example 3, rel-(2R,4S,5R)-1-(3-Methoxy-4-tert-butylbenzoyl)-4-(methoxymethyl)-5-(1,3-thiazol-2-yl)-2-(1,3-thiazol-4-ylmethyl)pyrrolidine-2-carboxylic acid] | < 150 | < 10
3 | COC[C@H]1C[C@@](CC(C)C)(C(=O)O)N(C(=O)c2ccc(C(C)(C)C)c(OC)c2)[C@H]1c1ncc(C)s1 (racemic) [Compound C, rel-(2S,4S,5R)-2-isobutyl-1-(3-methoxy-4-tert-butylbenzoyl)-4-methoxymethyl-5-(5-methyl-1,3-thiazol-2-yl)pyrrolidine-2-carboxylic acid, reference compound] |  | 10 to 100
4 | COC[C@H]1C[C@@](Cc2cscn2)(C(=O)O)N(C(=O)c2ccc(C(C)(C)C)c(OC)c2)[C@H]1c1ncc(C)s1 (single isomer, unassigned; enantiomer a) [Example 2] | < 150 | < 10
5 | COC[C@H]1C[C@@](Cc2cscn2)(C(=O)O)N(C(=O)c2ccc(C(C)(C)C)c(OC)c2)[C@H]1c1nccs1 (single isomer, unassigned; enantiomer a) [Example 12] | < 150 | < 10
6 | COC[C@H]1C[C@@](Cc2ccsn2)(C(=O)O)N(C(=O)c2ccc(C(C)(C)C)c(OC)c2)[C@H]1c1nccs1 (racemic) [Example 4, rel-(2R,4S,5R)-1-(3-Methoxy-4-tert-butylbenzoyl)-4-(methoxymethyl)-5-(1,3-thiazol-2-yl)-2-(1,2-thiazol-3-ylmethyl)pyrrolidine-2-carboxylic acid] | < 150 | < 10
7 | COC[C@H]1C[C@@](Cc2ccsn2)(C(=O)O)N(C(=O)c2ccc(C(C)(C)C)c(OC)c2)[C@H]1c1nccs1 (single isomer, unassigned; enantiomer a) [Example 5] | < 150 | < 10
8 | COC[C@H]1C[C@@](Cc2ccsn2)(C(=O)O)N(C(=O)c2ccc(C(C)(C)C)c(OC)c2)[C@H]1c1ncc(C)s1 (racemic) [Example 9, rel-(2R,4S,5R)-1-(3-Methoxy-4-tert-butylbenzoyl)-4-(methoxymethyl)-5-(5-methyl-1,3-thiazol-2-yl)-2-(1,2-thiazol-3-ylmethyl)pyrrolidine-2-carboxylic acid] | < 150 | < 10
9 | COC[C@H]1C[C@@](Cn2cccn2)(C(=O)O)N(C(=O)c2ccc(C(C)(C)C)c(OC)c2)[C@H]1c1ncc(C)s1 (racemic) [Example 10, rel-(2R,4S,5R)-1-(3-Methoxy-4-tert-butylbenzoyl)-4-(methoxymethyl)-5-(5-methyl-1,3-thiazol-2-yl)-2-(1H-pyrazol-1-ylmethyl)pyrrolidine-2-carboxylic acid] | < 150 | < 10
10 | COC[C@H]1C[C@@](CC(C)C)(C(=O)O)N(C(=O)c2ccc(C(C)(C)C)c(OC)c2)[C@H]1c1nccs1 [Compound B, (2S,4S,5R)-2-isobutyl-1-(3-methoxy-4-tert-butylbenzoyl)-4-methoxymethyl-5-(1,3-thiazol-2-yl)pyrrolidine-2-carboxylic acid, reference compound] | 150 to 10000 | 10 to 100
11 | COC[C@H]1C[C@@](Cn2cccn2)(C(=O)O)N(C(=O)c2ccc(C(C)(C)C)c(OC)c2)[C@H]1c1nccs1 (single isomer, unassigned) [Example 7] | < 150 | < 10
12 | COC[C@H]1C[C@@](Cc2nccs2)(C(=O)O)N(C(=O)c2ccc(C(C)(C)C)c(OC)c2)[C@H]1c1ncc(C)s1 (racemic) [Example 8, rel-(2R,4S,5R)-1-(3-Methoxy-4-tert-butylbenzoyl)-4-(methoxymethyl)-5-(5-methyl-1,3-thiazol-2-yl)-2-(1,3-thiazol-2-ylmethyl)pyrrolidine-2-carboxylic acid] | 150 to 10000 | < 10
13 | COC[C@H]1C[C@@](Cc2cscn2)(C(=O)O)N(C(=O)c2ccc(C(C)(C)C)c(OC)c2)[C@H]1c1ncc(C)s1 (racemic) [Example 1, rel-(2R,4S,5R)-1-(3-Methoxy-4-tert-butylbenzoyl)-4-(methoxymethyl)-5-(5-methyl-1,3-thiazol-2-yl)-2-(1,3-thiazol-4-ylmethyl)pyrrolidine-2-carboxylic acid] | < 150 | < 10
14 | COC[C@H]1C[C@@](Cn2cccn2)(C(=O)O)N(C(=O)c2ccc(C(C)(C)C)c(OC)c2)[C@H]1c1ncc(C)s1 (single isomer, unassigned; enantiomer a) [Example 11] | < 150 | < 10
15 | COC[C@H]1C[C@@](CC(C)C)(C(=O)O)N(C(=O)c2ccc(C(C)(C)C)c(OC)c2)[C@H]1c1nccs1 (racemic) [Compound A, rel-(2S,4S,5R)-2-isobutyl-1-(3-methoxy-4-tert-butylbenzoyl)-4-methoxymethyl-5-(1,3-thiazol-2-yl)pyrrolidine-2-carboxylic acid, reference compound] | 150 to 10000 | 10 to 100
16 | COC[C@H]1C[C@@](Cc2ccccc2)(C(=O)O)N(C(=O)c2ccc(C(C)(C)C)c(OC)c2)[C@H]1c1nccs1 (racemic) [Compound E, rel-(2R,4S,5R)-2-benzyl-1-(3-methoxy-4-tert-butylbenzoyl)-4-methoxymethyl-5-(1,3-thiazol-2-yl)-pyrrolidine-2-carboxylic acid, reference compound] | 150 to 10000 | > 100
17 | COC[C@H]1C[C@@](Cn2cccn2)(C(=O)O)N(C(=O)c2ccc(C(C)(C)C)c(OC)c2)[C@H]1c1nccs1 (racemic) [Example 6, rel-(2R,4S,5R)-1-(3-Methoxy-4-tert-butylbenzoyl)-4-(methoxymethyl)-2-(1H-pyrazol-1-ylmethyl)-5-(1,3-thiazol-2-yl)pyrrolidine-2-carboxylic acid] | < 150 | < 10
